Values of other authors, collected in patent US20210128795A1, “SPIRAL COATED STENT WITH CONTROLLABLE GRADIENT DEGRADATION, PREPARATION METHOD THEREOF AND APPLICATION THEREOF” (Zhuhai Ruizhan Biomaterials Co., Ltd., priority 2018, published 2021).
Where two headings read alike, the source gives them in different places.

Test system: rats

| Compound | LD50 value (median lethal dose) (rats per os) | LD50 value (median lethal dose) (rat, in vivo) |
| --- | --- | --- |
| OCCCO [1,3-propanediol] | 16,080 mg/kg | – |
| OCCCCO [1,4-butanediol] | – | 1,525 mg/kg |
